Experimental data taken from US10206907B2, “Compounds useful for the treatment of degenerative and inflammatory diseases” (GALAPAGOS NV, priority 2008, dated 2019).
Where two headings read alike, the source gives them in different places.

Legend:
[1] = system: MMP13 in SW1353 cells; assay: OSM/IL-1β signaling assay (MMP13 levels in SW1353 cells); format: cell-based; conditions: Homo sapiens; SW1353 cells, OSM and IL-1β triggered, MMP13 levels 48 hours after triggering; read-out: MMP13 EC50;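 further: secreted MMP13 captured by antibody, activated with APMA and its activity read by fluorescence, inhibition scaled between vehicle-treated triggered wells (0%) and untriggered wells (100%)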
[2] = Microsomal stability, human liver microsomes; format: in vitro ADME; conditions: percentage of compound remaining after 60 minutes, 3 μM compound
In short: (§1)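 Percent parent remaining after 60 min was determined by LCMS against a time-zero sample quenched before microsome addition. Incubations ran at 37°C with liver microsomes and a G6PDH-based NADPH-regenerating cofactor mix. Quench was MeOH or ACN (1:1).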

[3] = system: JAK-STAT signalling in HeLa cells; assay: JAK-STAT signalling assay (OSM-triggered pSTAT1(2)-luciferase reporter in HeLa cells); format: cell-based; conditions: Homo sapiens; HeLa cells, OSM-triggered pSTAT1(2)-luciferase reporter; read-out: STAT signalling EC50
In short: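 Read-out is oncostatin M–driven pSTAT1(2)-luciferase activity, corrected by co-transfected LacZ β-galactosidase, in transiently transfected HeLa cells cultured overnight at 37 °C, 10% CO2. Inhibition percentages against positive and negative controls were plotted across doses to derive EC50.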

[4] = Microsomal stability, rat liver microsomes; format: in vitro ADME; conditions: percentage of compound remaining after 60 minutes, 3 μM compound
In short: as §1

[5] = Caco2 permeability (bi-directional); format: in vitro ADME, human; conditions: human, pH 7.4; for efflux ratio at 1 h, 10 µM: Caco-2, ratio of PappB>A/PappA>B; for Papp A→B at 1 h, 10 µM: Caco-2, apical to basolateral, read-out: Papp (A2B)
In short: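 Compound concentrations in both chambers were measured by LC-MS/MS after 1 h incubation at 37 °C on an orbital shaker. Efflux ratio is PappB>A over PappA>B. Lucifer Yellow (50 μM in donor) confirmed layer integrity, with permeability of ≤100 nm/s required.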

[6] = system: TNF-alpha release; assay: Septic shock model (LPS-induced TNF release); format: in vivo, mouse; conditions: 30 mg/kg po, BALB/cJ mice, LPS ip; statistically significant
Experimental: Injection of lipopolysaccharide (LPS) induces a rapid release of soluble tumour necrosis factor (TNF-alpha) into the periphery. This model is used to analyse prospective blockers of TNF release in vivo.
Six BALB/cJ female mice (20 g) per group were treated at the intended dosing once, po. Thirty minutes later, LPS (15 μg/kg; E. Coli serotype 0111:B4) was injected ip. Ninety minutes later, mice were euthanized and blood was collected. Circulating TNF alpha levels were determined using commercially available ELISA kits. Dexamethasone (5 μg/kg) was used as a reference anti-inflammatory compound. Selected compounds are tested at one or multiple doses, e.g. 3 and/or 10 and/or 30 mg/kg, po.

[7] = target: Recombinant human JAK3 catalytic domain (Homo sapiens (Human), UniProt P52333); assay: JAK3 inhibition assay; format: biochemical; conditions: semi-quantitative score
[8] = target: Recombinant human JAK2 catalytic domain (Homo sapiens (Human), UniProt O60674); assay: JAK2 inhibition assay; format: biochemical; conditions: semi-quantitative score
In short: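 Activity was taken as vehicle cpm minus cpm with 10 μM staurosporine, and inhibition was expressed on that scale. Incubation was 90 min at 30 °C, followed by acid quench, phosphoric acid washes and Microscint counting. Compounds were tested as dose series to obtain IC50.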

[9] = target: Recombinant human JAK1 catalytic domain (Homo sapiens (Human), UniProt P23458); assay: JAK1 inhibition assay; format: biochemical
In short: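 IC50 values come from dose-response series, with each point expressed as percent inhibition of cpm. Vehicle sets full activity and 10 μM staurosporine sets background. Incorporated radioactivity counted by scintillation after washing with 75 mM phosphoric acid.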

[10] = target: Recombinant human TYK2 catalytic domain (Homo sapiens (Human), UniProt P29597); assay: TYK2 inhibition assay; format: biochemical; conditions: semi-quantitative score
Experimental: After 90 min at 30° C., reactions were stopped by adding of 25 μL/well of 150 mM phosphoric acid. […] Plates were washed 6 times with 300 μL per well of a 75 mM phosphoric acid solution and the bottom of the plates was sealed. 40 μL/well of Microscint-20 was added, the top of the plates was sealed and readout was performed using the Topcount (Perkin Elmer). Kinase activity was calculated by subtracting counts per minute (cpm) obtained in the presence of a positive control inhibitor (10 μM staurosporine) from cpm obtained in the presence of vehicle. The ability of a test compound to inhibit this activity was determined as: Percentage inhibition=((cpm determined for sample with test compound present−cpm determined for sample with positive control inhibitor) divided by (cpm determined in the presence of vehicle−cpm determined for sample with positive control inhibitor))*100%.
Dose dilution series were prepared for the compounds enabling the testing of dose-response effects in the TYK2 assay and the calculation of the IC50 for each compound.

Chain of Recombinant human TYK2 catalytic domain (P29597 871-1187): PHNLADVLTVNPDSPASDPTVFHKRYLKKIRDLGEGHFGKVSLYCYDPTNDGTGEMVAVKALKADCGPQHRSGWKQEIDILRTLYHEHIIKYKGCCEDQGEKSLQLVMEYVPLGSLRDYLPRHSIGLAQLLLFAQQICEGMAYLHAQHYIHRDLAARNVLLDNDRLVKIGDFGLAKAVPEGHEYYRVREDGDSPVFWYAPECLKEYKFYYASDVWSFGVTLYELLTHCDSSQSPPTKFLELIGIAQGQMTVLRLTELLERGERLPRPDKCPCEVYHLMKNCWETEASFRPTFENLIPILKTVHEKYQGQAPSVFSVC
Chain of Recombinant human JAK2 catalytic domain (O60674 808-1132): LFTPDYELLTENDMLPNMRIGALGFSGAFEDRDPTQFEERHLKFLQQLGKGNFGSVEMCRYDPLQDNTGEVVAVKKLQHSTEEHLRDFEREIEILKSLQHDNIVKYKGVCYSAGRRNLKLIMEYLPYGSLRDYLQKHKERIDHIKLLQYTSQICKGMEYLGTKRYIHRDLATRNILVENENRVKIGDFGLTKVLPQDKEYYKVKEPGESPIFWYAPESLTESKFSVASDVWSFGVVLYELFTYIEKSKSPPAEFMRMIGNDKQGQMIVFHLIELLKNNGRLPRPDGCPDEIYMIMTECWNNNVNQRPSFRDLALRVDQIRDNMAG
Chain of Recombinant human JAK1 catalytic domain (P23458 850-1154): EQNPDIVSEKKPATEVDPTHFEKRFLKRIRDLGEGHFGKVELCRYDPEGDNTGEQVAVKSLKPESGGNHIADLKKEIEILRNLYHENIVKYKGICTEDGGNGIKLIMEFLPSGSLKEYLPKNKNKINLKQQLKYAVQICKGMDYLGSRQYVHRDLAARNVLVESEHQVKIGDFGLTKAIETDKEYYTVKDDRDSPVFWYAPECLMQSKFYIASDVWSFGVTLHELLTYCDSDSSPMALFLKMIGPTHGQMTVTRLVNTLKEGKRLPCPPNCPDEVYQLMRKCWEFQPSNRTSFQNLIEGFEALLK
Chain of Recombinant human JAK3 catalytic domain (P52333 781-1124): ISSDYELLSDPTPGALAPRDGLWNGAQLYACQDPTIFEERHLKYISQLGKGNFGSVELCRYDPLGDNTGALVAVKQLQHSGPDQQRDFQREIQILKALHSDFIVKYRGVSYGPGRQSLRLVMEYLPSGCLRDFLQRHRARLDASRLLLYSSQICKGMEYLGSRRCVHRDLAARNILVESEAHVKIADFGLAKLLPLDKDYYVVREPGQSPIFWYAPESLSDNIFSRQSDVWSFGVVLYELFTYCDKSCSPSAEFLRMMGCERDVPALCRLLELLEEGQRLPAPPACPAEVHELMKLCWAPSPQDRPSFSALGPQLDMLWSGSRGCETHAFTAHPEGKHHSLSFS

EC50 [1] [nM] | Microsomal Stability Human (%) [2] | EC50 [3] [nM] | Microsomal Stability Rat (%) [4] | efflux ratio at 1 h, 10 µM [5] | IC50 [7] [nM] | IC50 [8] [nM] | IC50 ([9]; semi-quantitative score) [nM] | Papp A→B at 1 h, 10 µM [5] [×10⁻⁶ cm/s] | IC50 [10] [nM] | SMILES | reduction in the TNF release [6] [%] | IC50 [9] [nM]
501 to 1000 | * (* 0-25) | 101 to 500 | *** (*** 51-75) | 0.89 |  |  |  |  |  | O=C(Nc1nc2cccc(-c3ccc(OCc4cccnc4)cc3)n2n1)C1CC1 [Compound 36, N-(5-(4-(pyridin-3-ylmethoxy)phenyl)-[1,2,4]triazolo[1,5-a]pyridin-2-yl)cyclopropanecarboxamide] | > 50 | 
> 1000 | *** (*** 51-75) | 501 to 1000 | *** (*** 51-75) |  |  |  |  |  |  | O=C(Nc1nc2cccc(-c3ccc(OCc4ccccn4)cc3)n2n1)C1CC1 [Compound 37, N-(5-(4-(pyridin-2-ylmethoxy)phenyl)-[1,2,4]triazolo[1,5-a]pyridin-2-yl)cyclopropanecarboxamide] | > 50 | 
> 1000 | ** (** 26-50) | 501 to 1000 | ** (** 26-50) | 2.9 | 501 to 1000 | 101 to 500 | < 100 | 8.23 | > 1000 | O=C(NCCc1ccccc1)c1ccc(-c2cccc3nc(NC(=O)C4CC4)nn23)c(F)c1 [Compound 111, 4-(2-(cyclopropanecarboxamido)-[1,2,4]triazolo[1,5-a]pyridin-5-yl)-3-fluoro-N-phenethylbenzamide] |  | 
> 1000 | *** (*** 51-75) | > 1000 | **** (**** 76-100) |  | < 100 |  | < 100 |  |  | O=C(Nc1nc2cccc(-c3ccc(OCc4ccc(-n5cccn5)cc4)cc3)n2n1)C1CC1 [Compound 125] | > 50 | 
> 1000 | *** (*** 51-75) | > 1000 | ** (** 26-50) |  |  |  | < 100 |  |  | O=C(Nc1nc2cccc(-c3ccc(C(=O)N4CCC(C(F)(F)F)CC4)cc3)n2n1)C1CC1 [Compound 148, N-(5-(4-(4-(trifluoromethyl)piperidine-1-carbonyl)phenyl)-[1,2,4]triazolo[1,5-a]pyridin-2-yl)cyclopropanecarboxamide] | > 50 | 
> 1000 | ** (** 26-50) | 101 to 500 | *** (*** 51-75) |  |  | < 100 | < 100 |  |  | Cc1ccc(COc2ccc(-c3cccc4nc(NC(=O)C5CC5)nn34)cc2)cn1 [Compound 197, Cyclopropanecarboxylic acid {5-[4-(6-methyl-pyridin-3-ylmethoxy)-phenyl]-[1,2,4]triazolo[1,5-a]pyridin-2-yl}-amide] | > 50 | 
> 1000 | **** (**** 76-100) | > 1000 | **** (**** 76-100) | 104 |  | < 100 | < 100 | 0.05 |  | O=C(Nc1nc2cccc(-c3ccc(C(=O)N4CCS(=O)(=O)CC4)cc3)n2n1)C1CC1 [Compound 207, Cyclopropanecarboxylic acid {5-[4-(1,1-dioxo-thiomorpholine-4-carbonyl)-phenyl]-[1,2,4]triazolo[1,5-a]pyridin-2-yl}-amide] | > 50 | 
> 1000 | *** (*** 51-75) | > 1000 | **** (**** 76-100) |  |  | < 100 | < 100 |  |  | CC(=O)N(Cc1ccccn1)c1ccc(-c2cccc3nc(NC(=O)C4CC4)nn23)cc1 [Compound 208, Cyclopropanecarboxylic acid {5-[4-(acetyl-pyridin-2-ylmethyl-amino)-phenyl]-[1,2,4]triazolo[1,5-a]pyridin-2-yl}-amide] | > 50 | 
501 to 1000 | *** (*** 51-75) | 501 to 1000 | *** (*** 51-75) | 1.6 |  | < 100 | < 100 | 25.9 |  | O=C(Nc1nc2cccc(-c3ccc(CNc4ncccn4)cc3)n2n1)C1CC1 [Compound 229, Cyclopropanecarboxylic acid {5-[4-(pyrimidin-2-ylaminomethyl)-phenyl]-[1,2,4]triazolo[1,5-a]pyridin-2-yl}-amide] | > 50 | 
501 to 1000 | **** (**** 76-100) | 101 to 500 | **** (**** 76-100) | 13 | 101 to 500 | < 100 | < 100 | 4 | < 100 | O=C(Nc1nc2cccc(-c3ccc(C(=O)N4CCC(F)(F)C4)cc3)n2n1)C1CC1 [Compound 271, Cyclopropanecarboxylic acid (5-[4-(3,3-difluoro-pyrrolidine-1-carbonyl)-phenyl]-[1,2,4]triazolo[1,5-a]pyridin-2-yl}-amide] |  | 
> 1000 | *** (*** 51-75) | 101 to 500 | *** (*** 51-75) | 5.98 | 101 to 500 | < 100 | < 100 | 8.45 | < 100 | O=C(Nc1nc2cccc(-c3ccc(CNc4ccon4)cc3)n2n1)C1CC1 [Compound 302, Cyclopropanecarboxylic acid {5-[4-(isoxazol-3-ylaminomethyl)-phenyl]-[1,2,4]triazolo[1,5-a]pyridin-2-yl}-amide] |  | 
501 to 1000 | *** (*** 51-75) | 101 to 500 | ** (** 26-50) | 6.55 | < 100 | < 100 | < 100 | 6.55 | < 100 | NC(=O)c1ccccc1NCc1ccc(-c2cccc3nc(NC(=O)C4CC4)nn23)cc1 [Compound 306, 2-{4-[2-(Cyclopropanecarbonyl-amino)-[1,2,4]triazolo[1,5-a]pyridin-5-yl]-benzylamino}-benzamide] |  | 
> 1000 | **** (**** 76-100) | 501 to 1000 | *** (*** 51-75) | 10.1 | > 1000 | < 100 | < 100 | 4.3 | 101 to 500 | O=C(Nc1nc2cccc(-c3ccc(CC(=O)N4CC(F)(F)C4)cc3)n2n1)C1CC1 [Compound 317, Cyclopropanecarboxylic acid (5-{4-[2-(3,3-difluoro-azetidin-1-yl)-2-oxo-ethyl]-phenyl}-[1,2,4]triazolo[1,5-a]pyridin-2-yl)-amide] |  | 

SMILES | EC50 [1] [nM] | Microsomal Stability Human (%) [2] | EC50 [3] [nM] | Microsomal Stability Rat (%) [4] | efflux ratio at 1 h, 10 µM [5] | IC50 [7] [nM] | IC50 [8] [nM] | IC50 ([9]; semi-quantitative score) [nM] | Papp A→B at 1 h, 10 µM [5] [×10⁻⁶ cm/s] | IC50 [10] [nM] | reduction in the TNF release [6] [%] | IC50 [9] [nM]
CC(=O)Nc1nc2cccc(-c3ccc(OCc4ccccc4)cc3)n2n1 [Compound 163, N-(5-(4-(benzyloxy)phenyl)-[1,2,4]triazolo[1,5-a]pyridin-2-yl)acetamide] | > 1000 | *** (*** 51-75) | > 1000 | ** (** 26-50) | 0.85 | 101 to 500 | < 100 |  |  | > 1000 |  | < 100
